Assay results as given in patent EP0194158A2, “Anti-nicotine and anti-cotinine antibodies (monoclonal and other), and their uses in nicotine and cotinine assays” (Baylor College of Medicine, priority 1985, dated 1986).
Where two headings read alike, the source gives them in different places.

Columns and labels:
[1] = target: monoclonal antibody Anti-cotinine 305E5; assay: sandwich ELISA, inhibition of binding of monoclonal antibody to solid phase hapten (specificity); parameters: species or system mouse
Description: (§1) Control values were less than 0.05 absorbance unit.

[2] = target: monoclonal antibody Anti-nicotine 402C10; assay: as above; parameters: species or system mouse
Description: as §1

[3] = target: monoclonal antibody Anti-cotinine 305E5, isotype IgG2bk; assay: binding affinity constant K (method of R. Muller); parameters: species or system mouse; settings: value is K multiplied by 10^-8
[4] = target: monoclonal antibody Anti-cotinine 206F8, isotype IgAlambda; assay: binding affinity constant K (method of R. Muller); parameters: species or system mouse; settings: value is K multiplied by 10^-8
[5] = target: monoclonal antibody Anti-cotinine 308C11, isotype IgG1k; assay: binding affinity constant K (method of R. Muller); parameters: species or system mouse; settings: value is K multiplied by 10^-8
[6] = target: monoclonal antibody Anti-cotinine 309G5, isotype IgG1k; assay: binding affinity constant K (method of R. Muller); parameters: species or system mouse; settings: value is K multiplied by 10^-8
[7] = tested on: the 4 anticotinine antibodies (McAb); assay: sandwich ELISA, inhibition by homologous hapten, all anti-cotinine McAb; type: binding, mouse; settings: range over the 4 antibodies; each McAb diluted to give A490 1.0-1.2 without inhibitor
Protocol: as §1
Only 0.02 ng cotinine inhibited by 15%.

[8] = tested on: the 6 cotinine antisera (rabbit); assay: ELISA with rabbit antisera, no second antibody; type: binding; settings: range over the 6 antisera
Description: In these assays, no second antibody is required, because all rabbit IgG binds HRP-SpA (J.W. Goding, 20 J. Immunol. Methods 241 (1978)).

[9] = tested on: Monoclonal Antibody 206F8 (anti-cotinine); assay: Fluorescent (fluorometric) ELISA; type: binding, mouse; settings: nanograms of cotinine inhibitor required for 50% inhibition
Protocol: (§2) b. Fluorometric ELISA: The wells of polystyrene microtiter plates (Immulon 2; Dynatech Laboratories, Alexandria, VA) were coated respectively with 0.004 and 0.016 ug of polylysine-cotinine and polylysine-nicotine conjugate (0.1 ml) in 3 mM phosphate buffer, and incubated overnight at 4°C, pH 6.3. After aspiration, the wells were blocked with 0.2 ml casein buffer (0.01M Tris-buffered saline, pH 7.6., containing 0.01M EDTA and 0.2% vitamin-free casein (Nutritional Biochemicals, Cleveland, OH)) for 1 hour at room temperature, and then washed once with 0.2 ml of the same buffer and again aspirated. Assays were performed in 0.1 ml total volume per well using 0.050 ml diluted ascites (0.025 ml sample), and 0.025 ml nicotine or cotinine. Plates were incubated overnight at 4°C, washed three times with 0.2 ml casein buffer and then 0.1 ml biotin conjugated sheep anti-mouse IgG (Cooper Biomedical, Malvern, PA) diluted 1/250 with casein buffer was added. After incubation for 3 hours at room temperature, the plates were washed three times with 0.2 ml casein buffer, and streptavidin (0.5 ug) was added to each well, incubated for 1 hour at room temperature and washed as before. 0.1 ml of biotinylated alkaline phosphatase (Zymed, South San Francisco, CA) diluted 1/200 was added to each well, the plates were incubated for 1 hour at room temperature, washed with 0.2 ml PBS containing 0.05% Tween-20, and then washed three times with 0.2 ml of 0.01 M Tris-buffered saline, pH 7.6. 0.1 ml of substrate was added containing 2.5 mM 4-methylumbelliferyl phosphate dissolved in buffer containing diethanolamine (20% v/v) pH 10, 1 mM MgClz, and 9 mM levamisol. Fluorescence was measured with a Microfluor fluorometer (Dynatech Laboratories) at an excitation wavelength of 365 nm and emission wavelength of 450 nm. The plates were read right after substrate was added and again at 30 minute intervals. (Plates should be stored in the dark).

[10] = tested on: Monoclonal Antibody 305E5 (anti-cotinine); assay: Fluorescent (fluorometric) ELISA; type: binding, mouse; settings: nanograms of cotinine inhibitor required for 50% inhibition
Protocol: as §2

[11] = tested on: Monoclonal Antibody 308C11 (anti-cotinine); assay: Fluorescent (fluorometric) ELISA; type: binding, mouse; settings: nanograms of cotinine inhibitor required for 50% inhibition
Protocol: as §2

[12] = tested on: Monoclonal Antibody 309G5 (anti-cotinine); assay: Fluorescent (fluorometric) ELISA; type: binding, mouse; settings: nanograms of cotinine inhibitor required for 50% inhibition
Protocol: as §2

[13] = tested on: Rabbit Antibody 481D (anti-cotinine); assay: Fluorescent (fluorometric) ELISA; type: binding; settings: nanograms of cotinine inhibitor required for 50% inhibition
[14] = tested on: Rabbit Antibody 113D (anti-cotinine); assay: Fluorescent (fluorometric) ELISA; type: binding; settings: nanograms of cotinine inhibitor required for 50% inhibition
Protocol: as §2

[15] = tested on: Rabbit Antibody 494D (anti-cotinine); assay: Fluorescent (fluorometric) ELISA; type: binding; settings: nanograms of cotinine inhibitor required for 50% inhibition
Protocol: as §2

[16] = tested on: Rabbit Antibody 495D (anti-cotinine); assay: Fluorescent (fluorometric) ELISA; type: binding; settings: nanograms of cotinine inhibitor required for 50% inhibition
Protocol: as §2

[17] = tested on: Rabbit Antibody 482D (anti-cotinine); assay: Fluorescent (fluorometric) ELISA; type: binding; settings: nanograms of cotinine inhibitor required for 50% inhibition
[18] = target: monoclonal antibody Anti-nicotine 203G3, isotype IgMlambda; settings: read-out: K; binding affinity constant; value is K multiplied by 10^-8
Protocol: (§3) The binding affinity constant (K; an indication of binding strength), was measured by the method described in R. Muller, 34 J. Immunol. Methods 345 (i980). The concentration of antibody in the ascites fluid was also measured by a method described in R. Muller, id.

[19] = target: monoclonal antibody Anti-nicotine 301C4, isotype IgG1lambda; settings: read-out: K; binding affinity constant; value is K multiplied by 10^-8
Protocol: as §3

[20] = target: monoclonal antibody Anti-nicotine 302A12, isotype IgG1k; settings: read-out: K; binding affinity constant; value is K multiplied by 10^-8
Protocol: as §3

[21] = target: monoclonal antibody Anti-nicotine 302G3, isotype IgG1lambda; settings: read-out: K; binding affinity constant; value is K multiplied by 10^-8
Protocol: as §3

[22] = target: monoclonal antibody Anti-nicotine 303C10, isotype IgG2k; settings: read-out: K; binding affinity constant; value is K multiplied by 10^-8
Protocol: as §3

[23] = target: monoclonal antibody Anti-nicotine 303C5, isotype IgG1lambda; settings: read-out: K; binding affinity constant; value is K multiplied by 10^-8
Protocol: as §3

[24] = target: monoclonal antibody Anti-nicotine 304A4, isotype IgG1k; settings: read-out: K; binding affinity constant; value is K multiplied by 10^-8
Protocol: as §3

[25] = target: monoclonal antibody Anti-nicotine 304A7, isotype IgG1lambda; settings: read-out: K; binding affinity constant; value is K multiplied by 10^-8
Protocol: as §3

[26] = target: monoclonal antibody Anti-nicotine 402C10, isotype IgG2ak; settings: read-out: K; binding affinity constant; value is K multiplied by 10^-8
Protocol: as §3

[27] = tested on: the 9 antinicotine antibodies (McAb)
Protocol: The specificity of two of the antibodies (anti-nicotine 402Cl0 and anti-cotinine 305E5) was analyzed,. using a modification of the sandwich ELISA technique, which technique is described in detail below. In essence, specificity was determined by discerning how much structually related substance need be added to inhibit binding of monoclonal antibody to solid phase hapten by 50%. The assays were carried out in wells coated with 0.012 ug nicotine- or cotinine-polylysine conjugate, and with anti-nicotine and anti-cotinine diluted 1:729,000.
The modification involved use of 0.01 m1 of serially diluted standard nicotine or cotinine, (known amounts of inhibitors to assess antibody specificity), or test samples (eg. saliva) added to 0.04 ml casein buffer before its incubation with monoclonal antibodies. Maximum A490 values (i.e., maximum antibody binding) were determined using casein buffer (0.01 ml) in place of inhibitor. […] Control values were less than 0.05 absorbance unit. […]
After the preparation, to determine McAb binding, 0.05 ml diluted ascites fluid was added to 0.05 ml casein buffer and the plates were incubated overnight at 4°C. […] Color development was stopped by addition of 0.05 ml 4N sulfuric acid, and the A490 nm values were measured in the ELISA reader.

[28] = tested on: single rabbit antinicotine serum
Description: Also developed were similar ELISAs using rabbit antisera, that being prepared as described in J.J. Langone et al., Biochemistry (1973) supra; J.J. Langone, H. Van Vunakis, Methods in Enzymology (1982) supra. In these assays, no second antibody is required, because all rabbit IgG binds HRP-SpA (J.W. Goding, 20 J. Immunol. Methods 241 (1978)).

[29] = wells coated with 0.012 ug cotinine-polylysine conjugate, anti-cotinine diluted 1:729,000, total volume 0.1 ml
[30] = wells coated with 0.012 ug nicotine-polylysine conjugate, anti-nicotine diluted 1:729,000, total volume 0.1 ml
[31] = at 700 ng, the highest amount printed in the cell

Compound: C[N+]1([O-])CCCC1c1cccnc1 (stereo not drawn) [nicotine N'-oxide]
- Nanograms required for 50% inhibition [1, 29]: 490 Nanograms
- Nanograms required for 50% inhibition [2, 30]: 81.0 Nanograms

Compound: O=NN1CCCC1c1cccnc1 (stereo not drawn) [N'-nitrosonornicotine]
- Nanograms required for 50% inhibition [1, 29]: 6.5 Nanograms
- inhibition (per cent in brackets) [2, 31]: 31%
- Nanograms required for 50% inhibition [2, 30]: > 700 Nanograms

Compound: c1cncc([C@@H]2CCCCN2)c1 [anabasine]
- Nanograms required for 50% inhibition [1, 29]: 170 Nanograms
- Nanograms required for 50% inhibition [2, 30]: 14.3 Nanograms

Compound: CN1CCCC1c1ccc(O)nc1 (stereo not drawn) [6-hydroxynicotine]
- Nanograms required for 50% inhibition [1, 29]: 330 Nanograms
- times more required for 50% inhibition than (S)-(-)-nicotine ([2]; ratio to the naturally occurring isomer): 5 fold
- Nanograms required for 50% inhibition [2, 30]: 1.3 Nanograms

Compound: CN1CCCC1c1ccc(N)nc1 (stereo not drawn) [6-aminonicotine]
- Nanograms required for 50% inhibition [1, 29]: 8,500 Nanograms
- Nanograms required for 50% inhibition [2, 30]: 35.0 Nanograms

Compound: O=C(O)CCC(=O)c1cccnc1 [gamma-(3-pyridyl-gamma-oxobutyric acid]
- Nanograms required for 50% inhibition [1, 29]: 410 Nanograms
- Nanograms required for 50% inhibition [2, 30]: 1,920 Nanograms

Compound: CN1CCCC1CCO (stereo not drawn) [1-methyl-2-pyrrolidine ethanol]
- Nanograms required for 50% inhibition [1, 29]: 6,950 Nanograms
- Nanograms required for 50% inhibition [2, 30]: 5.4 Nanograms

Compound: CN1CCCC1c1cccnc1N (stereo not drawn) [2-aminonicotine]
- Nanograms required for 50% inhibition [1, 29]: 1,700 Nanograms
- Nanograms required for 50% inhibition [2, 30]: 14.0 Nanograms

Compound: CN1C(=O)CC[C@H]1c1cccnc1 [(S)-(-)-cotinine]
- Kd [3]: 1.76 nM
- Kd [4]: 5.41 nM
- Kd [5]: 3.21 nM
- Kd [6]: 1.32 nM
- inhibition ([1]; 0.02 ng cotinine): 15%
- Nanograms required for 50% inhibition [1, 29]: 0.12 Nanograms
- Nanograms required for 50% inhibition [2, 30]: 1,000 Nanograms
- 50% inhibition [7]: 0.038 to 0.12 ng
- 50% inhibition values [8]: 0.3 to 1.2 ng
- I 50% [9]: 0.255 nanograms
- I 50% [10]: 0.024 nanograms
- I 50% [11]: 0.033 nanograms
- I 50% [12]: 0.015 nanograms
- I 50% [13]: 0.215 nanograms
- I 50% [14]: 0.045 nanograms
- I 50% [15]: 0.075 nanograms
- I 50% [16]: 0.310 nanograms
- I 50% [17]: 0.025 nanograms

Compound: CN1CCC[C@@H]1c1cccnc1 [(R)-(+)-nicotine]
- Nanograms required for 50% inhibition [1]: 320 Nanograms
- Nanograms required for 50% inhibition [2]: 6.4 Nanograms
- times more required for 50% inhibition than (S)-(-)-nicotine [2]: Twenty-five

Compound: CCN1CCCC1c1cccnc1 (stereo not drawn) [N-ethylnornicotine]
- inhibition (per cent in brackets) ([1]; at the 1,000 ng level): 44%
- Nanograms required for 50% inhibition [1, 29]: > 1,000 Nanograms
- Nanograms required for 50% inhibition [2, 30]: 5.4 Nanograms

Compound: O=C1CCC(c2cccnc2)N1 (stereo not drawn) [desmethylcotinine]
- fold more required for 50% inhibition compared to homologous hapten ([1]; ratio to (S)-(-)-cotinine): 13 fold
- Nanograms required for 50% inhibition [1, 29]: 1.6 Nanograms
- Nanograms required for 50% inhibition [2, 30]: 10,000 Nanograms

Compound: (-)-cotinine N'-oxide
- Nanograms required for 50% inhibition [1, 29]: 4.6 Nanograms
- inhibition (per cent in brackets) ([2]; at the 1,000 ng level): 0%
- Nanograms required for 50% inhibition [2, 30]: > 1,000 Nanograms

Compound: c1cncc([C@@H]2CCCN2)c1 [(-)-nornicotine]
- Nanograms required for 50% inhibition [1]: 50.0 Nanograms
- Nanograms required for 50% inhibition [2]: 95.0 Nanograms

Compound: CN1CCC[C@H]1c1cccnc1 [(S)-(-)-nicotine]
- Kd [18]: 20.8 nM
- Kd [19]: 9.71 nM
- Kd [20]: 8 nM
- Kd [21]: 6.17 nM
- Kd [22]: 18.5 nM
- Kd [23]: 7.14 nM
- Kd [24]: 7.52 nM
- Kd [25]: 11.4 nM
- Kd [26]: 8.26 nM
- inhibition [2]: 15%
- Stereospecificity for (S)-(-)-nicotine ([27]; range over all 9 anti-nicotine McAb, versus R-(+)-nicotine): 5-45 fold
- 50% inhibition ([27]; range over the 9 antibodies, each McAb diluted to give A490 1.0-1.2 without inhibitor): 0.091 to 0.51 ng
- required for 50% inhibition [28]: 3.9 ng

Compound: c1cncc(C2=NCCC2)c1 [myosmine]
- Nanograms required for 50% inhibition [1, 29]: 220 Nanograms
- inhibition (per cent in brackets) [2, 31]: 13%
- Nanograms required for 50% inhibition [2, 30]: > 700 Nanograms
